From patent EP1707197A1 (TEVA PHARMACEUTICAL INDUSTRIES LTD., priority 2005, dated 2006)

Test: small volume in vitro release test in 50 ml 0.1N HCl
Assay type: physicochemical
Conditions: 37° C, 150 rpm
Protocol: The formulations were tested for their small volume in vitro release characteristics in 50 ml 0.1N HCl at 37° C and 150 rpm using the following procedure:
• a. Automated Dissolution System comprising: • Hanson SR8 Plus Test Station • Hanson Auto Plus Maximiser System Controller • Hanson Auto Plus MultiFill Fraction Collector • b. HPLC System comprising: • pump - Merck Hitachi L-7100 • autoinjector - Merck Hitachi L-7200 • column oven - Merck Hitachi L-7300 • detector - Merck Hitachi L-7400 • interface and integration software - Merck Hitachi D-7000
Place one weighed capsule in each vessel containing 0.1N HCl and immediately operate the apparatus for 30 min. Unless otherwise specified, 3 ml samples are withdrawn from each vessel and immediately filtered through PTFE membranes at 15 and 30 min.
The small volume was chosen as a model of the conditions in a fasted stomach.

CC(C)OC(=O)C(C)(C)Oc1ccc(C(=O)c2ccc(Cl)cc2)cc1 [Micronized Fenofibrate, 2-[4-(4-chlorobenzoyl)phenoxy]-2-methyl-propanoic acid, 1-methylethyl ester]
% dissolved 15 min (15 min): 0% | % dissolved 30 min (30 min): 0%
